Laboratory results published in patent US7790143B2, “Vaccines for immunization against helicobacter” (priority 2005, dated 2010).

Legend:
Parameters in all cases: key: R: resistant; S: susceptible; I: intermediate
H. baculiformis M50T = assay: Susceptibility to antimicrobials (30 μg); assay type: cell-based; details: taxon 1 H. baculiformis (this study)
Text: Data were obtained from Bronsdon et al. (1991), Dewhirst et al. (2000a), Eaton et al. (1993), Fox et al. (1988, 1995), Hänninen et al. (1996, 2005), Jalava et al. (1997) Int J Syst Bacteriol 47, 975-982, Lee et al. (1988, Infect Immun 56, 2843-2850, 1992), Mendes et al. (1996); Patterson et al. (2000), Van den Buick et al. (2006, Int J Syst Evol Microbiol 56, 1559-1564).

H. bizzozeronii = details: 30 μg; taxon 3 H. bizzozeronii; cited from earlier work
H. felis = details: 30 μg; taxon 4 H. felis; cited from earlier work
H. salomonis = details: 30 μg; taxon 5 H. salomonis; cited from earlier work
H. pylori = details: 30 μg; taxon 6 H. pylori; cited from earlier work
H. acinonychis = details: 30 μg; taxon 7 H. acinonychis; cited from earlier work
H. bilis = details: 30 μg; taxon 8 H. bilis; cited from earlier work
H. trogontum = details: 30 μg; taxon 9 H. trogontum; cited from earlier work
H. mustelae = details: 30 μg; taxon 10 H. mustelae; cited from earlier work
H. nemestrinae = details: 30 μg; taxon 11 H. nemestrinae; cited from earlier work
H. muridarum = details: 30 μg; taxon 12 H. muridarum; cited from earlier work
H. aurati = details: 30 μg; taxon 13 H. aurati; cited from earlier work

| Structure (SMILES) | Susceptibility to (H. baculiformis M50T) | Susceptibility to (H. bizzozeronii) | Susceptibility to (H. felis) | Susceptibility to (H. salomonis) | Susceptibility to (H. pylori) | Susceptibility to (H. acinonychis) | Susceptibility to (H. bilis) | Susceptibility to (H. trogontum) | Susceptibility to (H. mustelae) | Susceptibility to (H. nemestrinae) | Susceptibility to (H. muridarum) | Susceptibility to (H. aurati) |
| --- | --- | --- | --- | --- | --- | --- | --- | --- | --- | --- | --- | --- |
| CC(=O)OCC1=C(C(=O)O)N2C(=O)[C@@H](NC(=O)Cc3cccs3)[C@H]2SC1 [Cephalothin] | R | S | S | S | S | S | R | R | R | S | R | R |
| CCn1cc(C(=O)O)c(=O)c2ccc(C)nc21 [Nalidixic acid] | I | R | R | R | R | R | R | R | S | R | R | S |
